Laboratory results from US10159640B2, “Prebiotic oral care compositions containing amino acids” (COLGATE-PALMOLIVE COMPANY, priority 2013, dated 2018).

Legend:
Format in all cases: cell-based
Actinomyces naeslundii = assay: Metabolic activity, Biolog phenotype microarray; settings: control without dipeptide = 1
Method: (§1) The extent of metabolic activity of the tested bacteria in the presence of the above-mentioned dipeptides after 24 hours and 48 hours was investigated through a high throughput phenotype microarray system (PM) for microbial cells (Biolog Inc.). Each PM can contain up to 95 different biochemical compounds (e.g. di-peptides) that may act as substrates for bacteria as well as one negative control, not containing the substrates. Microarray plates were used in which the different wells of each plate were pre-loaded (by the manufacturer, Biolog Inc.) with different di-peptides to be tested. Each bacterial species was tested using a separate microarray plate. Thus, a single bacterial species was tested with a variety of dipeptides on each particular plate. The microarrays are based on redox technology, using cell respiration as a universal reporter. Active cell respiration results in the reduction of a tetrazolium dye and in the formation of a strong color—for example, when using the tetrazolium dye “Biolog Redox Dye Mix D”, the color changes from transparent/colourless to purple when the dye is reduced. The observation of this color change indicates which of the substrates improve the metabolic activity and health of the cells. Each bacterial species was collected from blood agar plates (incubated for 48 hours anaerobically at 37° C.) and transferred to an IF-0 Base inoculation fluid (Biolog Inc.), which is a nutritionally poor medium. The resulting cell suspension was adjusted to a transmittance of 42% (relative to the transmittance of the base inoculation fluid with no bacterial species present) at 492 nm using a BioRad SmartSpec 3000 Photometer (the adjustment being effected by adding either further inoculation fluid or further bacteria until the transmittance of 42% was achieved). A 1:5 dilution of this suspension was prepared by mixing 3 mL of the 42% transmittance cell suspension with 15 mL of an inoculation fluid (which inoculation fluid was formed by mixing 11.6 mL sterile water, 62.5 mL IF-0 base inoculation fluid and 0.9 mL of the tetrazolium dye “Biolog Redox Dye mix D”), resulting in a final cell density which was equal to 85% transmittance using a BioRad SmartSpec 3000 Photometer. 680 μL of a 2M sodium succinate/200 μM ferric citrate solution in distilled water was added to 68 mL of the 85% transmittance cell suspension and 100 μL of this mixture was added to each well (the various di-peptides being already present in powder form in the relevant wells of the plate as obtained from the supplier i.e. Biolog Inc.). All plates were incubated in an anaerobic atmosphere at 37° C. Color changes were measured spectrophotometrically at 492 nm (Thermo Scientific Multiskan Ascent) at 24 hrs and 48 hrs using the same plate at both time points. […] After 24 hrs and 48 hrs under continuous shaking in a Multiscan microplate reader, the optical density (OD) of the synthetic medium at 24 hours and 48 hours was measured (using the microplate reader) at a wavelength of 492 nm for each combination of bacterium/dipeptide, and for each of their respective controls (i.e. which contained the particular bacterium but no dipeptide). […] The experiment was carried out three times for each combination of bacterium with dipeptide, with each repeat being carried out on a different day (thus providing three biological replicas). The controls were also carried out three times, as above. The values shown are the average (mean) of the three single values obtained (as detailed above) for each combination of bacterium with dipeptide, at 24 hrs and at 48 hrs.

Actinomyces viscosus = assay: Metabolic activity, Biolog phenotype microarray; settings: control without dipeptide = 1
Method: as §1

[1] = system: Aggregatibacter actinomycetemcomitans; assay: Metabolic activity, Biolog phenotype microarray; settings: control without dipeptide = 1
Method: as §1

Capnocytophaga sputigena = assay: Metabolic activity, Biolog phenotype microarray; settings: control without dipeptide = 1
Method: as §1

Fusobacterium nucleatum = assay: Metabolic activity, Biolog phenotype microarray; settings: control without dipeptide = 1
Method: as §1

Porphyromonas gingivalis = assay: Metabolic activity, Biolog phenotype microarray; settings: control without dipeptide = 1
Method: as §1

Prevotella intermedia = assay: Metabolic activity, Biolog phenotype microarray; settings: control without dipeptide = 1
Method: as §1

Streptococcus gordonii = assay: Metabolic activity, Biolog phenotype microarray; settings: control without dipeptide = 1
Method: as §1

Streptococcus mitis = assay: Metabolic activity, Biolog phenotype microarray; settings: control without dipeptide = 1
Method: as §1

Streptococcus mutans = assay: Metabolic activity, Biolog phenotype microarray; settings: control without dipeptide = 1
Method: as §1

Streptococcus salivarius = assay: Metabolic activity, Biolog phenotype microarray; settings: control without dipeptide = 1
Method: as §1

Streptococcus sanguinis = assay: Metabolic activity, Biolog phenotype microarray; settings: control without dipeptide = 1
Method: as §1

Streptococcus sobrinus = assay: Metabolic activity, Biolog phenotype microarray; settings: control without dipeptide = 1
Method: as §1

Tannerella forsythia = assay: Metabolic activity, Biolog phenotype microarray; settings: control without dipeptide = 1
Method: as §1

Veillonella parvula = assay: Metabolic activity, Biolog phenotype microarray; settings: control without dipeptide = 1
Method: as §1

[2] = system: beneficial oral bacteria and pathogenic oral bacteria; assay: Metabolic activity, whole panel: prebiotic effect; settings: threshold value of 2
Method: Substrates that were able to increase the metabolic activity of at least one of the above beneficial bacteria while not or only minimally increasing the growth of the pathogenic bacteria are considered to be prebiotic substrates. The extent of metabolic activity of the tested bacteria in the presence of the above-mentioned dipeptides after 24 hours and 48 hours was investigated through a high throughput phenotype microarray system (PM) for microbial cells (Biolog Inc.). Each PM can contain up to 95 different biochemical compounds (e.g. di-peptides) that may act as substrates for bacteria as well as one negative control, not containing the substrates. Microarray plates were used in which the different wells of each plate were pre-loaded (by the manufacturer, Biolog Inc.) with different di-peptides to be tested. Each bacterial species was tested using a separate microarray plate. Thus, a single bacterial species was tested with a variety of dipeptides on each particular plate. The microarrays are based on redox technology, using cell respiration as a universal reporter. Active cell respiration results in the reduction of a tetrazolium dye and in the formation of a strong color—for example, when using the tetrazolium dye “Biolog Redox Dye Mix D”, the color changes from transparent/colourless to purple when the dye is reduced. The observation of this color change indicates which of the substrates improve the metabolic activity and health of the cells. Each bacterial species was collected from blood agar plates (incubated for 48 hours anaerobically at 37° C.) and transferred to an IF-0 Base inoculation fluid (Biolog Inc.), which is a nutritionally poor medium. The resulting cell suspension was adjusted to a transmittance of 42% (relative to the transmittance of the base inoculation fluid with no bacterial species present) at 492 nm using a BioRad SmartSpec 3000 Photometer (the adjustment being effected by adding either further inoculation fluid or further bacteria until the transmittance of 42% was achieved). A 1:5 dilution of this suspension was prepared by mixing 3 mL of the 42% transmittance cell suspension with 15 mL of an inoculation fluid (which inoculation fluid was formed by mixing 11.6 mL sterile water, 62.5 mL IF-0 base inoculation fluid and 0.9 mL of the tetrazolium dye “Biolog Redox Dye mix D”), resulting in a final cell density which was equal to 85% transmittance using a BioRad SmartSpec 3000 Photometer. 680 μL of a 2M sodium succinate/200 μM ferric citrate solution in distilled water was added to 68 mL of the 85% transmittance cell suspension and 100 μL of this mixture was added to each well (the various di-peptides being already present in powder form in the relevant wells of the plate as obtained from the supplier i.e. Biolog Inc.). All plates were incubated in an anaerobic atmosphere at 37° C. Color changes were measured spectrophotometrically at 492 nm (Thermo Scientific Multiskan Ascent) at 24 hrs and 48 hrs using the same plate at both time points. […] After 24 hrs and 48 hrs under continuous shaking in a Multiscan microplate reader, the optical density (OD) of the synthetic medium at 24 hours and 48 hours was measured (using the microplate reader) at a wavelength of 492 nm for each combination of bacterium/dipeptide, and for each of their respective controls (i.e. which contained the particular bacterium but no dipeptide). […] The experiment was carried out three times for each combination of bacterium with dipeptide, with each repeat being carried out on a different day (thus providing three biological replicas). The controls were also carried out three times, as above. The values shown are the average (mean) of the three single values obtained (as detailed above) for each combination of bacterium with dipeptide, at 24 hrs and at 48 hrs. […] This value was selected in order to exclude low-stimulating metabolites and avoid false positive results.

Row | Substance | metabolic activity: OD 492 nm divided by OD of control (Actinomyces naeslundii; 24 hrs) | metabolic activity: OD 492 nm divided by OD of control (Actinomyces naeslundii; 48 hrs) | metabolic activity: OD 492 nm divided by OD of control (Actinomyces viscosus; 24 hrs) | metabolic activity: OD 492 nm divided by OD of control (Actinomyces viscosus; 48 hrs) | metabolic activity: OD 492 nm divided by OD of control ([1]; 24 hrs) | metabolic activity: OD 492 nm divided by OD of control ([1]; 48 hrs) | metabolic activity: OD 492 nm divided by OD of control (Capnocytophaga sputigena; 24 hrs) | metabolic activity: OD 492 nm divided by OD of control (Capnocytophaga sputigena; 48 hrs) | metabolic activity: OD 492 nm divided by OD of control (Fusobacterium nucleatum; 24 hrs) | metabolic activity: OD 492 nm divided by OD of control (Fusobacterium nucleatum; 48 hrs) | metabolic activity: OD 492 nm divided by OD of control (Porphyromonas gingivalis; 24 hrs) | metabolic activity: OD 492 nm divided by OD of control (Porphyromonas gingivalis; 48 hrs) | metabolic activity: OD 492 nm divided by OD of control (Prevotella intermedia; 24 hrs) | metabolic activity: OD 492 nm divided by OD of control (Prevotella intermedia; 48 hrs) | metabolic activity: OD 492 nm divided by OD of control (Streptococcus gordonii; 24 hrs) | metabolic activity: OD 492 nm divided by OD of control (Streptococcus gordonii; 48 hrs) | metabolic activity: OD 492 nm divided by OD of control (Streptococcus mitis; 24 hrs) | metabolic activity: OD 492 nm divided by OD of control (Streptococcus mitis; 48 hrs) | metabolic activity: OD 492 nm divided by OD of control (Streptococcus mutans; 24 hrs) | metabolic activity: OD 492 nm divided by OD of control (Streptococcus mutans; 48 hrs) | further results
1 | Ser-Asn | 1.3199 | 1.6167 | 1.7174 | 2.0421 | 1.3093 | 1.7285 | 2.2418 | 1.5699 | 1.2165 | 1.4289 | 1.0079 | 1.2165 | 1.1002 | 1.1329 | 0.8814 | 1.3337 | 1.0807 | 1.5785 | 1.2715 | 1.7588 | metabolic activity: OD 492 nm divided by OD of control (Streptococcus salivarius; 24 hrs): 1.1917; metabolic activity: OD 492 nm divided by OD of control (Streptococcus salivarius; 48 hrs): 1.5886; metabolic activity: OD 492 nm divided by OD of control (Streptococcus sanguinis; 24 hrs): 1.1935; metabolic activity: OD 492 nm divided by OD of control (Streptococcus sanguinis; 48 hrs): 1.5794; metabolic activity: OD 492 nm divided by OD of control (Streptococcus sobrinus; 24 hrs): 1.2753; metabolic activity: OD 492 nm divided by OD of control (Streptococcus sobrinus; 48 hrs): 1.7028; metabolic activity: OD 492 nm divided by OD of control (Tannerella forsythia; 24 hrs): 1.2030; metabolic activity: OD 492 nm divided by OD of control (Tannerella forsythia; 48 hrs): 1.4354; metabolic activity: OD 492 nm divided by OD of control (Veillonella parvula; 24 hrs): 1.1101; metabolic activity: OD 492 nm divided by OD of control (Veillonella parvula; 48 hrs): 1.1143; prebiotic effects (metabolic activity) ([2]; 24 hrs): exhibited prebiotic effects; prebiotic effects (metabolic activity) ([2]; 48 hrs): exhibited prebiotic effects
2 | Trp-Leu | 1.1778 | 1.4354 | 1.6496 | 2.0774 | 1.0357 | 1.1455 | 0.8565 | 0.9454 | 0.9945 | 1.0254 | 1.0236 | 1.2127 | 1.0663 | 1.0399 | 1.2109 | 1.2858 | 1.0445 | 1.0524 | 1.0145 | 1.1337 | metabolic activity: OD 492 nm divided by OD of control (Streptococcus salivarius; 24 hrs): 1.0960; metabolic activity: OD 492 nm divided by OD of control (Streptococcus salivarius; 48 hrs): 1.1505; metabolic activity: OD 492 nm divided by OD of control (Streptococcus sanguinis; 24 hrs): 0.9310; metabolic activity: OD 492 nm divided by OD of control (Streptococcus sanguinis; 48 hrs): 0.9561; metabolic activity: OD 492 nm divided by OD of control (Streptococcus sobrinus; 24 hrs): 1.1681; metabolic activity: OD 492 nm divided by OD of control (Streptococcus sobrinus; 48 hrs): 1.2761; metabolic activity: OD 492 nm divided by OD of control (Tannerella forsythia; 24 hrs): 1.0234; metabolic activity: OD 492 nm divided by OD of control (Tannerella forsythia; 48 hrs): 1.1079; metabolic activity: OD 492 nm divided by OD of control (Veillonella parvula; 24 hrs): 0.8734; metabolic activity: OD 492 nm divided by OD of control (Veillonella parvula; 48 hrs): 0.7918; prebiotic effects (metabolic activity) ([2]; 48 hrs): exhibited prebiotic effects
